Test results reported in PubChem BioAssay (NCI).
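Cultured in 96-well plates, cells were exposed to test compound for 48 hours across five concentrations. GI50 is the concentration that inhibits growth by half. TGI is the concentration that stops growth completely.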

What was measured:
Experiment in all cases: inhibition of tumour cell growth, NCI panel, 48 h
[1] = system: T-47D breast
[2] = system: OVCAR-4 ovarian
[3] = system: HCC-2998 colon
[4] = system: M14 melanoma
[5] = system: UO-31 renal
[6] = system: NCI-H23 lung
[7] = system: BT-549 breast
[8] = system: SK-MEL-28 melanoma
[9] = system: HT29 colon
[10] = system: RXF 393 renal
[11] = system: HS 578T breast
[12] = system: TK-10 renal
[13] = system: OVCAR-8 ovarian
[14] = system: MALME-3M melanoma
[15] = system: HCT-116 colon
[16] = system: HL-60(TB) leukemia
[17] = system: SNB-75 CNS
[18] = system: UACC-62 melanoma
[19] = system: CCRF-CEM leukemia
[20] = system: SF-268 CNS
[21] = system: SK-MEL-2 melanoma
[22] = system: SF-539 CNS
[23] = system: OVCAR-3 ovarian
[24] = system: NCI-H226 lung
[25] = system: A549 NSCLC
[26] = system: SK-MEL-5 melanoma
[27] = system: U251 CNS
[28] = system: COLO 205 colon
[29] = system: 786-0 renal
[30] = system: HOP-62 NSCLC
[31] = system: SW-620 colon
[32] = system: NCI-H460 lung
[33] = system: RPMI-8226 leukemia
[34] = system: MCF7 breast
[35] = system: SR leukemia
[36] = system: UACC-257 melanoma
[37] = system: PC-3 prostate
[38] = system: EKVX NSCLC
[39] = system: K-562 leukemia
[40] = system: DU-145 prostate
[41] = system: A498 renal
[42] = system: NCI/ADR-RES ovarian
[43] = system: HCT-15 colon
[44] = system: IGROV1 ovarian
[45] = system: SNB-19 CNS
[46] = system: MDA-MB-435
[47] = system: CAKI-1 renal
[48] = system: ACHN renal
[49] = system: LOX IMVI melanoma
[50] = system: MDA-MB-231 breast
[51] = system: KM12 colon
[52] = system: HOP-92 NSCLC
[53] = system: NCI-H522 lung
[54] = system: MDA-MB-468 breast
[55] = system: SK-OV-3 ovarian
[56] = system: SF-295 CNS
[57] = system: SN12C renal
[58] = system: MOLT-4 leukemia
[59] = system: OVCAR-5 ovarian

COc1cc(/C=C/C(=O)c2ccc(NC(=O)CN3C(=O)NC(C)(c4ccccc4)C3=O)cc2)cc(OC)c1OC (configuration not stated)
GI50 [1]: 6.56 µM
TGI [1]: 69.9 µM
GI50 [2]: 13.4 µM
TGI [2]: > 100 µM
GI50 [3]: 2.92 µM
TGI [3]: 8.97 µM
GI50 [4]: 6.67 µM
TGI [4]: 22.9 µM
GI50 [5]: 17.3 µM
TGI [5]: 74.1 µM
GI50 [6]: 4.61 µM
TGI [6]: 19.4 µM
GI50 [7]: 4.73 µM
TGI [7]: 21.2 µM
GI50 [8]: 14.6 µM
TGI [8]: 32.1 µM
GI50 [9]: 3.75 µM
TGI [9]: 13 µM
GI50 [10]: 3.01 µM
TGI [10]: 12.2 µM
GI50 [11]: 32.6 µM
TGI [11]: > 100 µM
GI50 [12]: 46.6 µM
TGI [12]: > 100 µM
GI50 [13]: 5.03 µM
TGI [13]: > 100 µM
GI50 [14]: 14.6 µM
TGI [14]: 44.3 µM
GI50 [15]: 2.27 µM
TGI [15]: 8.61 µM
GI50 [16]: 2.26 µM
TGI [16]: 8.23 µM
GI50 [17]: 5.33 µM
TGI [17]: 84.5 µM
GI50 [18]: 11.7 µM
TGI [18]: 24.8 µM
GI50 [19]: 2.9 µM
TGI [19]: > 100 µM
GI50 [20]: 8.39 µM
TGI [20]: 90.8 µM
GI50 [21]: 17.5 µM
TGI [21]: 40.7 µM
GI50 [22]: 2.23 µM
TGI [22]: 5.69 µM
GI50 [23]: 4.16 µM
TGI [23]: 21 µM
GI50 [24]: 19.3 µM
TGI [24]: > 100 µM
GI50 [25]: 4.53 µM
TGI [25]: > 100 µM
GI50 [26]: 9.99 µM
TGI [26]: 21.5 µM
GI50 [27]: 2.7 µM
TGI [27]: 12.4 µM
GI50 [28]: 13.7 µM
TGI [28]: 30.4 µM
GI50 [29]: 8.43 µM
TGI [29]: 23.3 µM
GI50 [30]: 15.8 µM
TGI [30]: 93.4 µM
GI50 [31]: 4.35 µM
TGI [31]: 20.8 µM
GI50 [32]: 3.93 µM
TGI [32]: 22.7 µM
GI50 [33]: 2.32 µM
TGI [33]: 10.2 µM
GI50 [34]: 3.06 µM
TGI [34]: 13.5 µM
GI50 [35]: 1.93 µM
TGI [35]: > 100 µM
GI50 [36]: 11.6 µM
TGI [36]: 28 µM
GI50 [37]: 10.8 µM
TGI [37]: > 100 µM
GI50 [38]: 12.9 µM
TGI [38]: 75.8 µM
GI50 [39]: 3.16 µM
TGI [39]: > 100 µM
GI50 [40]: 3.66 µM
TGI [40]: 15 µM
GI50 [41]: 31.6 µM
TGI [41]: > 100 µM
GI50 [42]: > 100 µM
TGI [42]: > 100 µM
GI50 [43]: 11.7 µM
TGI [43]: 48.9 µM
GI50 [44]: 4.85 µM
TGI [44]: 25.2 µM
GI50 [45]: 14.9 µM
TGI [45]: 32.9 µM
GI50 [46]: 3.64 µM
TGI [46]: 47.9 µM
GI50 [47]: 8.66 µM
TGI [47]: > 100 µM
GI50 [48]: 13.6 µM
TGI [48]: 46.7 µM
GI50 [49]: 3.09 µM
TGI [49]: 13.2 µM
GI50 [50]: 4.52 µM
TGI [50]: 25.4 µM
GI50 [51]: 3.69 µM
TGI [51]: 17.8 µM
GI50 [52]: 34 µM
TGI [52]: > 100 µM
GI50 [53]: 9 µM
TGI [53]: 23.7 µM
GI50 [54]: 3.2 µM
TGI [54]: 12.6 µM
GI50 [55]: 37.4 µM
TGI [55]: > 100 µM
GI50 [56]: 14.3 µM
TGI [56]: 31.8 µM
GI50 [57]: 12.9 µM
TGI [57]: 42 µM
GI50 [58]: 2.57 µM
TGI [58]: 8.25 µM
GI50 [59]: 10.5 µM
TGI [59]: 26.7 µM

Cn1cc(-c2cc(N)n3nc(-c4c[nH]c5ccccc45)cc3n2)c2cc(F)ccc21
GI50 [1]: 2.05 µM
TGI [1]: 4.92 µM
GI50 [2]: 2.76 µM
TGI [2]: 8.16 µM
GI50 [3]: 1.69 µM
TGI [3]: 3.18 µM
GI50 [4]: 1.86 µM
TGI [4]: 3.98 µM
GI50 [5]: 1.71 µM
TGI [5]: 3.65 µM
GI50 [6]: 1.91 µM
TGI [6]: 4.22 µM
GI50 [7]: 17.6 µM
TGI [7]: 34.2 µM
GI50 [8]: 1.7 µM
TGI [8]: 3.13 µM
GI50 [9]: 1.89 µM
TGI [9]: 3.96 µM
GI50 [10]: 1.9 µM
TGI [10]: 4.19 µM
GI50 [11]: 3.91 µM
TGI [11]: 21.7 µM
GI50 [12]: 2.02 µM
TGI [12]: 7.64 µM
GI50 [13]: 3.35 µM
TGI [13]: > 100 µM
GI50 [14]: 1.75 µM
TGI [14]: 3.18 µM
GI50 [15]: 1.71 µM
TGI [15]: 3.24 µM
GI50 [17]: 5.15 µM
TGI [17]: 20.3 µM
GI50 [18]: 1.71 µM
TGI [18]: 3.19 µM
GI50 [19]: 2.23 µM
TGI [19]: 5.75 µM
GI50 [20]: 2.6 µM
TGI [20]: 8.08 µM
GI50 [21]: 2.06 µM
TGI [21]: 4.91 µM
GI50 [22]: 1.63 µM
TGI [22]: 3.01 µM
GI50 [23]: 2.3 µM
TGI [23]: 4.68 µM
GI50 [24]: 10.7 µM
TGI [24]: 45.2 µM
GI50 [25]: 2.84 µM
TGI [25]: 11.1 µM
GI50 [26]: 1.85 µM
TGI [26]: 3.73 µM
GI50 [27]: 1.97 µM
TGI [27]: 4.09 µM
GI50 [28]: 2.17 µM
TGI [28]: 4.33 µM
GI50 [29]: 1.49 µM
TGI [29]: 2.95 µM
GI50 [30]: 2.83 µM
TGI [30]: 13.9 µM
GI50 [31]: 1.95 µM
TGI [31]: 4 µM
GI50 [32]: 2.2 µM
TGI [32]: 4.99 µM
GI50 [33]: 2.48 µM
TGI [33]: 6.22 µM
GI50 [34]: 1.95 µM
TGI [34]: 4.34 µM
GI50 [35]: 2.01 µM
TGI [35]: > 100 µM
GI50 [36]: 1.9 µM
TGI [36]: 3.85 µM
GI50 [37]: 2.48 µM
TGI [37]: 9.08 µM
GI50 [38]: 1.99 µM
TGI [38]: 4.86 µM
GI50 [40]: 3.7 µM
TGI [40]: 13.3 µM
GI50 [41]: 11.6 µM
TGI [41]: 26.6 µM
GI50 [42]: 2.35 µM
TGI [42]: 6.35 µM
GI50 [43]: 1.79 µM
TGI [43]: 3.78 µM
GI50 [44]: 2.18 µM
TGI [44]: 5.61 µM
GI50 [45]: 2.38 µM
TGI [45]: 6.25 µM
GI50 [46]: 1.93 µM
TGI [46]: 4.01 µM
GI50 [47]: 1.97 µM
TGI [47]: 4.73 µM
GI50 [48]: 2.07 µM
TGI [48]: 4.81 µM
GI50 [49]: 1.74 µM
TGI [49]: 3.11 µM
GI50 [50]: 1.98 µM
TGI [50]: 3.63 µM
GI50 [51]: 2.12 µM
TGI [51]: 4.64 µM
GI50 [52]: 2.06 µM
TGI [52]: 4.46 µM
GI50 [53]: 1.78 µM
TGI [53]: 3.62 µM
GI50 [54]: 1.52 µM
TGI [54]: 2.97 µM
GI50 [55]: 6.82 µM
TGI [55]: 23.6 µM
GI50 [56]: 1.71 µM
TGI [56]: 3.39 µM
GI50 [57]: 2.44 µM
TGI [57]: 7.03 µM
GI50 [58]: 2.32 µM
TGI [58]: 6.32 µM
GI50 [59]: 1.97 µM
TGI [59]: 4.27 µM
